From patent US9309187B2, “EP2 receptor agonists” (TAKEDA GMBH, priority 2012, dated 2016) come the findings set out here.

One assay deals with T1, human EP2 receptor (Homo sapiens, UniProt P43116).
T1 construct: purchased Millipore
The experiment in a line: EP2 binding assay (PGE2 displacement). Conditions: recombinant human EP2 membranes, 1 nanoM [3H]-PGE2; reported as range bins; read-out: EP2 binding (PGE2 displacement) pIC50 (-log IC50) (converted). As to the method: Method for Measuring Inhibition of PGE2 Binding to the Human Prostanoid Receptor EP2:
Human EP2 receptor equilibrium competition binding assays were performed according to Abramovitz et al. (M. Abramovitz et al. 2000, Biochimica et Biophysica Acta 1483: 285-293) in a final incubation volume of 100 microL in 50 milliM Bis-Tris, pH6.0 in 96-well plates. Radiolabelled Prostaglandin E2 (PGE2) (1 nanoM [^3H]-PGE2 purchased from Perkin Elmer) was added to the assay as competitive ligand. Test compounds stored as Dimethylsulfoxide (DMSO) stock solutions were added to the assay in serial dilutions in assay buffer while keeping the final DMSO concentration equal in each sample. The reaction was initiated by addition of membrane proteins harbouring human EP2 receptor (ChemiSCREEN™ membrane preparation recombinant human EP2 prostanoid receptor that was purchased by Millipore). Total binding was determined in the absence of test compound or PGE2 and non-specific binding was determined in the presence of 1 microM PGE2. Incubations were conducted for 60 minutes at room temperature until equilibrium was reached and terminated by filtration through GF/B filter (Perkin Elmer) prewetted with 0.3% PEI solution. Unbound radiolabelled PGE2 was removed by 8 wash cycles with the same buffer under ice-cold conditions and the filters containing the residual radioactivity were dried for 60 minutes at 60° C. In order to measure the filter bound radioactivity, 40 microL microscint (scintillation liquid) was added to each filter and the chemiluminescence was determined by TopCount-NTX™. The specific binding was calculated by subtracting non-specific binding from each sample. Percent inhibition by test compounds was calculated based on specific binding without test compound. Each sample was measured in triplicates per experiment and for the calculation of the pIC50 at least 2 independent experiments were performed. Determination of half maximal inhibiting concentration (IC50) was performed with GraphPad Prism Software.
(§1) The numbers of the compounds correspond to the examples numbers.
EP2 Binding Assay (PGE2 Displacement): pIC50 Values

For assay [1], the system named is normal human lung fibroblasts (NHLF). The experiment in a line: Inhibition of the proliferation of normal human lung fibroblasts (NHLF). Conditions: Fibroblast, IL1β (50 pg/mL) and bFGF (10 ng/mL) for 36 h, methyl-3H thymidine incorporation, read-out: inhibition of NHLF proliferation pIC50 (-log IC50) (converted). It counts as cell-based. As to the method:
Method for Determination of the Inhibition of the Proliferation of Normal Human Lung Fibroblasts (NHLF)
16,500 NHLF-cells were seeded in each well of 24-well cell culture plates and were subsequently cultivated for 3.5 days. Thereafter cell culture medium was replaced by non-serum containing medium and cells were starved for 24 h. Subsequently a serial dilution of test compound was added and cells were stimulated with IL1β (Interleukine 1 beta) (50 pg/mL) and bFGF (basic Fibroblast Growth Factor) (10 ng/mL) for 36 h. For DNA-synthesis (Desoxyribonucleic Acid-synthesis) measurement methyl-^3H thymidine was added to the cells for the last 7 h of the 36 h incubation period. Thereafter the radioactive labeled cells were processed for measurement of the incorporated radioactivity as a marker for DNA-synthesis and thus proliferation. For that purpose the cell culture supernatants were removed, adherent cells washed once with ice-cold PBS and fixed in ice-cold 10% (w/v) trichloroacetic acid (TCA) for 30 min. Thereafter TCA was discarded and the DNA of the fixed cells hydrolyzed by administering 0.2 N NaOH. The radioactivity containing NaOH was then transferred into scintillation vials, scintillation liquid added and radioactivity was counted (L56500, Beckman Counter). Test compounds were dissolved in DMSO to a stock concentration of 10 mM. After administration of the compound to the cell cultures the final DMSO concentration was 0.1%. Inhibition of proliferation by the various concentrations of test compound was calculated related to 0.1% DMSO-treated control cells.
as §1

Assay [2] relates to TNFalpha release in human peripheral blood mononuclear cells (PBMC) stimulated with LPS. Put plainly: Inhibition of LPS induced TNFalpha release in human PBMCs. Conditions: 1 ng/mL LPS, 24 hours, reported as range bins, read-out: Inhibition of LPS induced TNFalpha release in human PBMCs pIC30 (-log IC30). It counts as cell-based. On the procedure: Method for Measuring the Inhibition of TNFalpha Release in Human Peripheral Blood MononuClear Cells (PBMC) Stimulated with LPS:
Assay was performed with some modifications of the method described by Hatzelmann and Schudt (Hatzelmann and Schudt 2001, J. Pharmacol. Exp. Therapeutics 297: 267-279) and the protocol “drawing of venous blood from healthy volunteers for in vitro studies” was approved by the ethics committee of the Landesärztekammer Baden Württemberg in Stuttgart. Peripheral blood mononuclear cells (PBMCs) were isolated from venous blood with the anticoagulant citrate from healthy donors according to standard protocols using Ficoll. The cell layer of PBMCs were washed twice with phosphate buffer solution and equilibrated at room temperature for 60 minutes. 500,000 PBMCs in 180 microL RPMI1640 cell medium supplemented with 10% FCS, NEAA (Non-essential-amino-acids), L-Glutamine and Sodium Pyruvate per sample were pre-incubated with 10 microL of a serial dilution of test compound or piclamilast as positive control for 60 min. at 37° C. After pre-incubation blood samples were stimulated by the addition of 10 microL LPS (Sigma, Aldrich) per sample resulting in a final concentration of 1 ng/mL LPS and a final volume of 200 microL. Cells were incubated for 24 hours at 37° C. TNFalpha levels were determined from cell supernatant that was obtained by a centrifugation step and transferring the supernatant to a new 96-well plate. Content of TNFalpha was determined via alphaLISA Technology according to manufacture protocol (Perkin Elmer).
PBMC samples that were not stimulated with LPS were used as control and set for 100% inhibition. PBMC samples that were stimulated with LPS and solvent instead of test compound were set as 0% inhibition. Percent inhibition was calculated based on these controls for each sample and since most compounds achieved saturating maximal inhibition of 60% a pIC30 value was calculated with GraphPad Prism Software.
For the following compounds the inhibitory values of TNFalpha release [determined as −log IC30=pIC30] in human PBMCs between 5.0 and 5.9, between 6.0 and 6.9, between 7.0 and 7.9 and between 8.0 and 9.0 have been determined. The numbers of the compounds correspond to the examples numbers.
Inhibition of LPS Induced TNFalpha Release Assay in Human PBMCs: pIC30

Molecules are shown by their SMILES.

T1 sequence (P43116 whole entry): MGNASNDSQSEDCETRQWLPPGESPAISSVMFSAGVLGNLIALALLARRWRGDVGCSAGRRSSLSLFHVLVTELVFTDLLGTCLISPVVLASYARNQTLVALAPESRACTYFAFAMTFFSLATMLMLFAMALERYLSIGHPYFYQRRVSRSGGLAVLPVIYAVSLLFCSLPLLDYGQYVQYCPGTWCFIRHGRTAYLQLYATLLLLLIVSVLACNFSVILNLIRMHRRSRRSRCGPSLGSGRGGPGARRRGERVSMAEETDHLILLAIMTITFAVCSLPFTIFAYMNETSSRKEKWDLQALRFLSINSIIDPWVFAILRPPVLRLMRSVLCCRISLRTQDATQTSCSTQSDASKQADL

Consider `O=C(O)/C=C/c1ccc(Cl)c(NC(=O)c2cc(-c3ccccc3)cc3ccccc23)c1` [Example 3, (2E)-3-(4-chloro-3-{[(3-phenylnaphthalen-1-yl)carbonyl]amino}phenyl)prop-2-enoic acid], for which, on human EP2 receptor, the IC50 is 1.26 to 10 nM.
The term IC30 denotes the concentration at which the effect reaches the 30% level. As to `O=C(O)/C=C/c1ccc(F)c(NC(=O)c2cc(-c3ccccc3)cc3ccccc23)c1` [Example 2, (2E)-3-(4-fluoro-3-{[(3-phenylnaphthalen-1-yl)carbonyl]amino}phenyl)prop-2-enoic acid], the IC50 in assay [1] is 1.58 to 15.8 nM; at human EP2 receptor it was 1.26 to 10 nM. Moreover, the IC30 in assay [2] lay within 1 to 10 nM.
Consider `O=C(O)/C=C/c1cccc(NC(=O)c2cc(-c3ccccc3)cc3ccccc23)c1` [Example 1, (2E)-3-(3-{[(3-phenylnaphthalen-1-yl)carbonyl]amino}phenyl)prop-2-enoic acid], for which the values for the IC50 (in assay [1]; at human EP2 receptor) were 1.58 to 15.8 nM and 1.26 to 10 nM, respectively. In addition, the IC30 in assay [2] is 1 to 10 nM.
For the molecule `O=C(O)/C=C/c1ccc(F)c(NC(=O)c2cc(-c3ccccc3F)cc3ccccc23)c1` [Example 9, (2E)-3-{3-[({3-[2-fluorophenyl]naphthalen-1-yl}carbonyl)amino]-4fluorophenyl}prop-2-enoic acid], the values for the IC50 (in assay [1]; on human EP2 receptor) were 1.58 to 15.8 nM and 1.26 to 10 nM, respectively. Moreover, the IC30 in assay [2] is 12.6 to 100 nM.
In the same order, the values of `O=C(O)/C=C/c1ccc(F)c(NC(=O)c2cc(-c3cccc(F)c3)cc3ccccc23)c1` [Example 10, (2E)-3-{3-[({3-[3-fluorophenyl]naphthalen-1-yl}carbonyl)amino]-4fluorophenyl}prop-2-enoic acid] are 1.58 to 15.8 nM, 1.26 to 10 nM and 1 to 10 nM.
